The values that follow come from patent US20130310352A1, “DEXAMETHASONE COMBINATION THERAPY” (priority 2010, published 2013).

Molecules are shown by their SMILES.

In test [1] the test system is CD138+ primary MM cells. Nature of the test: Apoptosis of primary MM cells cocultured with BMSCs ex vivo. As to conditions: 10 μM, 24 hours, cocultured 1:1 with BMSCs. The class given is cell-based, human. As for the experimental part:
(§1) MM cell lines ARP1, ARK, MM.1S, MM.1R and U266 were maintained in RPMI-1640 medium supplemented with 10% fetal bovine serum, 100 U/ml penicillin and 100 μg/ml streptomycin at 37° C. and 5% CO2 Primary MM cells and MM BMSCs were isolated from bone marrow aspirates of myeloma patients. PBMCs were obtained from healthy volunteers. The study was approved by the Institutional Review Board at The University of Texas M.D. Anderson Cancer Center. Anti-caspase-3, caspase-9, PARP, Bim, XIAP, cyclin D1, pp 70S6K (Thr389) and p27(Kip1) antibodies were purchased from Cell Signaling. Anti-bcl-2, Bc1-XL, Akt, pAkt (Thr 308), pAkt (Ser 473), p70S6K and β-actin antibodies were purchased from Santa Cruz. Compound A was dissolved in DMSO at 10 mM as stock solution. Dexamethasone and Propidium iodide (PI) were purchased from Sigma-Aldrich. Recombinant human IL6 was purchased from R&D Systems. FITC conjugated Annexin V was obtained from Invitrogen.
Apoptotic cells were determined as Annexin V positive cells.
To evaluate compound A function in primary MM cells, the study was extended to CD138+ primary MM cells freshly isolated from myeloma patients. […]
(A). […] Compound A induced MM cell apoptosis were measured by Annexin V staining as described in Materials and Methods. […] Cell growths were assessed by MTS assay. […]

The test system of test [2] is ARK. Briefly: MTS cell growth assay. The class given is cell-based. As to conditions: Homo sapiens, 24 hours treatment, read-out: IC50 (concentration at 50% inhibition), cell growth. The procedure:
as §1
(§2) All experiments were performed in triplicate.
(Tetrazolium dyes change colour on reduction, which living cells bring about.)

The subject of test [3] is MM.1R. Briefly: MTS cell growth assay. Particulars: Homo sapiens, 24 hours treatment, read-out: IC50 (concentration at 50% inhibition), cell growth. Format: cell-based. The procedure: as §1, §2
For test [4], the system named is U266. Briefly: MTS cell growth assay. The class given is cell-based. As to conditions: Homo sapiens, U-266, U266, 24 hours treatment, read-out: IC50 (concentration at 50% inhibition), cell growth. As for the experimental part: as §1, §2
For test [5], the system named is MM.1S. Nature of the test: MTS cell growth assay. Format: cell-based. As to conditions: Homo sapiens, MM1.S, 24 hours treatment, read-out: IC50 (concentration at 50% inhibition), cell growth. As for the experimental part: as §1, §2
Test [6] relates to ARP1. Nature of the test: MTS cell growth assay. The class given is cell-based. As to conditions: Homo sapiens, ARP-1, ARP1, 24 hours treatment, read-out: IC50 (concentration at 50% inhibition), cell growth. As for the experimental part:
as §1, §2

The subject of test [7] is caspase 3, caspase 9 and PARP in ARP1, MM.1S and MM.1R. Nature of the test: Western blotting, caspases activation. Format: cell-based, human. As to conditions: 10 μM. As for the experimental part:
as §1
To elucidate compound A induced MM cell apoptosis, MM cell lines ARP1, MM.1S and MM.1R, treated with or without compound A for 24 hours, were assessed by Western blotting analysis.
(A). […] Compound A induced activation and cleavage of caspase-3, caspase-9 and PARP is shown. (B). Same MM cells treated with 10 μM compound A were lysed for western blotting. (C) RP1 cells were treated with 10 μM compound A for 1, 6, 12 and 24 hours.
For orientation: Immunoblotting shows a protein as a band on a membrane.

Where [8] appears, read: 24 hours, ARP1, MM.1S and MM.1R.

As for `Nc1cc(C(F)(F)F)c(-c2cc(N3CCOCC3)nc(N3CCOCC3)n2)cn1` [compound A, 5-(2,6-di-morpholin-4-yl-pyrimidin-4-yl)-4-trifluoromethyl-pyridin-2-ylamine], the “primary MM cells apoptosis” value in test [1] is given as “more than 70%”. Moreover, the IC50 is 1 to 10 µM in test [2]; 1 to 10 µM in test [3]; 10 to 100 µM in test [4]; < 1 µM in test [5]; 1 to 10 µM in test [6]. Further, the “caspase 3 cleavage” value in test [7] (setting [8]) was “cleavage”. The “caspase 9 cleavage” value in test [7] (setting [8]) is given as “cleavage”. The PARP cleavage result in test [7] (all tested cell lines) was “detected”.
